Experimental data: patent US6355799B1, “Substituted benzene compounds, process for their preparation, and herbicidal and defoliant compositions containing them” (ISK Americas Incorporated, priority 1997, dated 2002)

What was measured:
Format in all cases: in vivo
[1] = system: lambsquarters (Chenopodium album, CHEAL); test: Post-emerge test, greenhouse herbicide activity screening; conditions: phytotoxicity rating 0-100 (0 no damage, 100 complete death), 14 days after application
How it was run: (§1)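 Herbicidal damage is scored 0 (none) to 100 (complete plant death) two weeks after a simulated field spray. Rates span 15–1000 g ai/ha, delivered in acetone at 187 l/ha. For post-emergence treatments, plants have 2–3 leaves and the spray carries 0.25% v/v non-ionic surfactant.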

[2] = system: green foxtail (Setaria viridis, SETVI); test: as above; conditions: phytotoxicity rating 0-100 (0 no damage, 100 complete death), 14 days after application
How it was run: as §1

[3] = system: large crabgrass (Digitaria sanguinalis, DIGSA); test: as above; conditions: phytotoxicity rating 0-100 (0 no damage, 100 complete death), 14 days after application
How it was run: as §1

[4] = system: sicklepod (Cassia obtusifolia, CASOB); test: as above; conditions: phytotoxicity rating 0-100 (0 no damage, 100 complete death), 14 days after application
How it was run: as §1

[5] = system: barnyardgrass (Echinochloa crus-galli, ECHCG); test: as above; conditions: phytotoxicity rating 0-100 (0 no damage, 100 complete death), 14 days after application
How it was run: as §1

[6] = system: redroot pigweed (Amaranthus retroflexus, AMARE); test: as above; conditions: phytotoxicity rating 0-100 (0 no damage, 100 complete death), 14 days after application
How it was run: as §1

[7] = system: velvetleaf (Abutilon theophrasti, ABUTH); test: as above; conditions: phytotoxicity rating 0-100 (0 no damage, 100 complete death), 14 days after application
How it was run: as §1

[8] = system: johnsongrass (Sorghum halepense, SORHA); test: as above; conditions: phytotoxicity rating 0-100 (0 no damage, 100 complete death), 14 days after application
How it was run: as §1

[9] = system: ivyleaf morningglory (Ipomoea hederacea, IPOHE); test: as above; conditions: phytotoxicity rating 0-100 (0 no damage, 100 complete death), 14 days after application
How it was run: as §1

[10] = system: redroot pigweed (Amaranthus retroflexus, AMARE); test: Pre-emerge test, greenhouse herbicide activity screening; conditions: pre-emerge, rated 14 days after application, 0 = no damage, 100 = complete death
How it was run: as §1

[11] = system: field corn (Zea mays L., var. Dekalb 535, CORN); test: Post-emerge test, crop safety; conditions: phytotoxicity rating 0-100 (0 no damage, 100 complete death), 14 days after application
How it was run: (§2)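 Applied at 15–1000 g ai/ha from acetone in 187 l/ha spray volume. Post-emergence applications included 0.25% v/v non-ionic surfactant and reached plants sown 8–21 days before. Pre-emergence applications were incorporated by surface watering. Efficacy or crop damage was rated on a 0–100 scale after 14 days.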

[12] = system: upland rice (Oryza sp., var. Tebonnet, RICE); test: Post-emerge test, crop safety; conditions: phytotoxicity rating 0-100 (0 no damage, 100 complete death), 14 days after application
How it was run: as §2

[13] = system: lambsquarters (Chenopodium album, CHEAL); test: Pre-emerge test, greenhouse herbicide activity screening; conditions: pre-emerge, rated 14 days after application, 0 = no damage, 100 = complete death
How it was run: as §2

[14] = system: green foxtail (Setaria viridis, SETVI); test: as above; conditions: pre-emerge, rated 14 days after application, 0 = no damage, 100 = complete death
How it was run: as §2

[15] = system: large crabgrass (Digitaria sanguinalis, DIGSA); test: as above; conditions: pre-emerge, rated 14 days after application, 0 = no damage, 100 = complete death
How it was run: as §2

[16] = system: sicklepod (Cassia obtusifolia, CASOB); test: as above; conditions: pre-emerge, rated 14 days after application, 0 = no damage, 100 = complete death
How it was run: as §2

[17] = system: barnyardgrass (Echinochloa crus-galli, ECHCG); test: as above; conditions: pre-emerge, rated 14 days after application, 0 = no damage, 100 = complete death
How it was run: as §2

[18] = system: velvetleaf (Abutilon theophrasti, ABUTH); test: as above; conditions: pre-emerge, rated 14 days after application, 0 = no damage, 100 = complete death
How it was run: as §2

[19] = system: johnsongrass (Sorghum halepense, SORHA); test: as above; conditions: pre-emerge, rated 14 days after application, 0 = no damage, 100 = complete death
How it was run: as §2

[20] = system: ivyleaf morningglory (Ipomoea hederacea, IPOHE); test: as above; conditions: pre-emerge, rated 14 days after application, 0 = no damage, 100 = complete death
How it was run: as §2

[21] = system: field corn (Zea mays L., var. Dekalb 535, CORN); test: Pre-emerge test, crop safety; conditions: pre-emerge, rated 14 days after application, 0 = no damage, 100 = complete death
How it was run: (§3)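 Compounds in acetone were track-sprayed at 187 l/ha, 15–1000 g ai/ha, onto sandy loam pots. Pre-emerge seeds were sown one day before spraying, with surface watering afterwards. Post-emerge plants were at the 2–3 leaf stage and sprayed with 0.25% v/v non-ionic surfactant. Injury was rated 0–100 at 14 days.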

[22] = system: upland rice (Oryza sp., var. Tebonnet, RICE); test: Pre-emerge test, crop safety; conditions: pre-emerge, rated 14 days after application, 0 = no damage, 100 = complete death
How it was run: as §3

For `COc1c(Cl)cc(F)c(-n2c(=O)cc(C(F)(F)F)n(C)c2=O)c1NC(=O)C=C(C)C` [2-7], the “Post-emerge Herbicidal Activity CHEAL” value ([1]; 63 g ai/ha) was 40, the “Post-emerge Herbicidal Activity CHEAL” value ([1]; 250 g ai/ha) was 50 and the “Post-emerge Herbicidal Activity SETVI” value ([2]; 63 g ai/ha) was 0. For the same compound, the “Post-emerge Herbicidal Activity SETVI” value ([2]; 250 g ai/ha) was 30, the “Post-emerge Herbicidal Activity DIGSA” value ([3]; 63 g ai/ha) was 0 and the “Post-emerge Herbicidal Activity DIGSA” value ([3]; 250 g ai/ha) was 0. The “Post-emerge Herbicidal Activity CASOB” value ([4]; 63 g ai/ha) was 0, the “Post-emerge Herbicidal Activity CASOB” value ([4]; 250 g ai/ha) was 30 and the “Post-emerge Herbicidal Activity ECHCG” value ([5]; 63 g ai/ha) was 0. For the same compound, the “Post-emerge Herbicidal Activity ECHCG” value ([5]; 250 g ai/ha) was 0, the “Post-emerge Herbicidal Activity AMARE” value ([6]; 63 g ai/ha) was 10 and the “Post-emerge Herbicidal Activity AMARE” value ([6]; 250 g ai/ha) was 50. For the same compound, the “Post-emerge Herbicidal Activity ABUTH” value ([7]; 63 g ai/ha) was 70, the “Post-emerge Herbicidal Activity ABUTH” value ([7]; 250 g ai/ha) was 95 and the “Post-emerge Herbicidal Activity SORHA” value ([8]; 63 g ai/ha) was 0. For the same compound, the “Post-emerge Herbicidal Activity SORHA” value ([8]; 250 g ai/ha) was 0, the “Post-emerge Herbicidal Activity IPOHE” value ([9]; 63 g ai/ha) was 50 and the “Post-emerge Herbicidal Activity IPOHE” value ([9]; 250 g ai/ha) was 90. For the same compound, the “Pre-emerge Herbicidal Activity AMARE (phytotoxicity rating, scale 0-100)” value ([10]; 63 g ai/ha) was 90, the “Pre-emerge Herbicidal Activity AMARE (phytotoxicity rating, scale 0-100)” value ([10]; 250 g ai/ha) was 100 and the “Post-emerge Herbicidal Activity CORN (crop damage)” value ([11]; 63 g ai/ha) was 0. The “Post-emerge Herbicidal Activity CORN (crop damage)” value ([11]; 250 g ai/ha) was 10, the “Post-emerge Herbicidal Activity RICE (crop damage)” value ([12]; 63 g ai/ha) was 40 and the “Post-emerge Herbicidal Activity RICE (crop damage)” value ([12]; 250 g ai/ha) was 40. The “Pre-emerge Herbicidal Activity CHEAL (phytotoxicity rating, scale 0-100)” value ([13]; 63 g ai/ha) was 100, the “Pre-emerge Herbicidal Activity CHEAL (phytotoxicity rating, scale 0-100)” value ([13]; 250 g ai/ha) was 100 and the “Pre-emerge Herbicidal Activity SETVI (phytotoxicity rating, scale 0-100)” value ([14]; 63 g ai/ha) was 95. For the same compound, the “Pre-emerge Herbicidal Activity SETVI (phytotoxicity rating, scale 0-100)” value ([14]; 250 g ai/ha) was 100, the “Pre-emerge Herbicidal Activity DIGSA (phytotoxicity rating, scale 0-100)” value ([15]; 63 g ai/ha) was 95 and the “Pre-emerge Herbicidal Activity DIGSA (phytotoxicity rating, scale 0-100)” value ([15]; 250 g ai/ha) was 100. For the same compound, the “Pre-emerge Herbicidal Activity CASOB (phytotoxicity rating, scale 0-100)” value ([16]; 63 g ai/ha) was 60, the “Pre-emerge Herbicidal Activity CASOB (phytotoxicity rating, scale 0-100)” value ([16]; 250 g ai/ha) was 100 and the “Pre-emerge Herbicidal Activity ECHCG (phytotoxicity rating, scale 0-100)” value ([17]; 63 g ai/ha) was 40. The “Pre-emerge Herbicidal Activity ECHCG (phytotoxicity rating, scale 0-100)” value ([17]; 250 g ai/ha) was 100, the “Pre-emerge Herbicidal Activity ABUTH (phytotoxicity rating, scale 0-100)” value ([18]; 63 g ai/ha) was 100 and the “Pre-emerge Herbicidal Activity ABUTH (phytotoxicity rating, scale 0-100)” value ([18]; 250 g ai/ha) was 100. The “Pre-emerge Herbicidal Activity SORHA (phytotoxicity rating, scale 0-100)” value ([19]; 63 g ai/ha) was 90, the “Pre-emerge Herbicidal Activity SORHA (phytotoxicity rating, scale 0-100)” value ([19]; 250 g ai/ha) was 95 and the “Pre-emerge Herbicidal Activity IPOHE (phytotoxicity rating, scale 0-100)” value ([20]; 63 g ai/ha) was 70. For the same compound, the “Pre-emerge Herbicidal Activity IPOHE (phytotoxicity rating, scale 0-100)” value ([20]; 250 g ai/ha) was 100, the “Pre-emerge crop damage CORN (phytotoxicity rating, scale 0-100)” value ([21]; 63 g ai/ha) was 10 and the “Pre-emerge crop damage CORN (phytotoxicity rating, scale 0-100)” value ([21]; 250 g ai/ha) was 70. The “Pre-emerge crop damage RICE (phytotoxicity rating, scale 0-100)” value ([22]; 63 g ai/ha) was 60 and the “Pre-emerge crop damage RICE (phytotoxicity rating, scale 0-100)” value ([22]; 250 g ai/ha) was 90.
